What all share (test): DTP human tumour cell line panel, 48 h
The test system of assay [1] is OVCAR-4 ovarian.
In assay [2] the test system is NCI-H226 lung.
For assay [3], the system named is NCI-H460 lung.
For assay [4], the system named is SNB-19 CNS.
The test system of assay [5] is LOX IMVI melanoma.
Assay [6] has as its system UACC-257 melanoma.
Assay [7] concerns HCT-116 colon.
In assay [8] the test system is SK-MEL-2 melanoma.
Assay [9] relates to SW-620 colon.
The subject of assay [10] is CAKI-1 renal.

SMILES strings stand for the structures. Values joined by “and” are separate entries in the source; they are usually repeats but may differ in a detail not shown here. Equal entries are not always repeated.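 In this assay, cells in 96-well plates receive the compound at five concentrations for 48 hours. Endpoints are linearly interpolated between the surrounding concentrations. GI50 is the concentration that inhibits growth by half. TGI: total growth inhibition.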

Broadly, the GI50 is the concentration at which growth is held to half of that of the control. One may read the TGI as the concentration at which net growth stops. A higher TGI goes with lower sensitivity of the cells.

`FC(F)(F)c1ccc(NCc2nc3ccccc3[nH]2)cc1`: the GI50 in assay [1] was 27.1 µM; in [2] it was 26.1 µM; in assay [3] it was 19.5 µM; in [4] it was 34.3 µM; in assay [5], 23.2 µM; in assay [6], 23.5 µM. Further, the GI50 in assay [7] is 23 µM; in assay [8], 20.7 µM; in assay [9], 35.7 µM; in assay [10], 19.4 µM. Besides, the TGI in [1] was above 100 µM; in assay [2] it was above 100 µM; in assay [3], 47.7 µM; in assay [4], above 100 µM; in assay [5], above 100 µM; in [6] it was 67.9 µM. The TGI in [7] is 68.7 µM; in assay [8], 42.1 µM; in assay [9], above 100 µM; in assay [10] it was 49.4 µM.
For `O=C(c1ccco1)c1c(C(F)(F)F)n([O-])c2ccc(F)cc2[n+]1=O`, the GI50 is 1.35 µM in assay [1]; 5.38 µM in assay [2]; 0.926 µM in assay [3]; 1.06 µM in assay [4]; 0.785 µM in [5]; 1.47 µM in [6]. Besides, the GI50 was 0.824 µM in [7], 0.91 µM in assay [8], 0.316 µM in assay [9] and 1.6 µM in [10]. Further, the TGI in assay [1] was 2.64 µM; in assay [2], 22.1 µM; in assay [3], 11.7 µM; in [4], 2.41 µM; in assay [5] it was 2.24 µM; in assay [6] it was 2.81 µM. For the same compound, the TGI is 2.41 µM in assay [7], 2.47 µM in [8], 1.16 µM in assay [9] and 3.26 µM in assay [10].
For the compound `O=C(NC1C(=O)NNC1c1ccccc1Cl)c1ccccc1` (configuration not stated), the TGI in [1], in assay [2], in [3], in assay [4], in [5] and in assay [6] was above 100 µM throughout. For the same compound, the TGI in assay [7], in assay [8], in [9] and in assay [10] was above 100 µM throughout.
As for `COc1cc(/C=C/c2ccccn2)cc(OC)c1OC`, the TGI in assay [1], in [2], in assay [3], in assay [4], in assay [5] and in [6] was above 10 µM in each case. In addition, the TGI in assay [7], in assay [8], in assay [9] and in [10] was above 10 µM each time.
`Cc1cc(C#Cc2ccccc2)ccc1-n1c(/C=C/c2cc(O)ccc2O)nc2ccccc2c1=O`: the GI50 in [1] was 2.4 µM; in assay [2], 1.52 µM; in assay [3], 1.57 µM; in assay [4], 1.62 µM; in assay [5], 1.37 µM; in assay [6] it was 1.56 µM. In addition, the GI50 in [7] is 1.46 µM; in assay [8], 1.4 µM; in assay [9] it was 1.71 µM; in assay [10] it was 2.15 µM. Besides, the TGI in assay [1] worked out at 8.5 µM; in [2], 3.93 µM; in [3], 2.91 µM; in assay [4] it was 3.18 µM; in assay [5], 2.65 µM; in assay [6], 2.94 µM. For the same compound, the concentration for total growth inhibition (TGI) in [7] came to 2.77 µM; in [8], 3.05 µM; in assay [9], 3.51 µM; in assay [10] it was 7.24 µM.
For the compound `COc1cccc(/C=C\c2ccnc3ccccc23)c1`, the TGI in [1], in assay [2], in assay [3], in [4], in [5] and in [6] was above 10 µM in each case. For the same compound, the TGI in assay [7], in assay [8], in assay [9] and in assay [10] was above 10 µM throughout.
Turning to `CCCCC(C(=O)CCC(=O)Nc1ccc(Cl)cc1)C(=O)C(C)C` (configuration not stated), the TGI in [1], in [2], in assay [3], in assay [4], in assay [5] and in assay [6] was above 100 µM in each case. Moreover, the TGI in assay [7], in assay [8], in assay [9] and in [10] was above 100 µM throughout.
With `Nc1ccc(C(=O)Nc2ccccc2N)cc1`, the TGI in assay [1] was above 76.5 µM; in assay [2] it was above 100 µM; in assay [3], above 100 µM; in assay [4], above 100 µM; in [5] it was above 75.8 µM; in assay [6] it was above 72.5 µM. Besides, the TGI in [7] is above 90.7 µM; in assay [8], above 86.1 µM; in assay [9] it was above 100 µM; in [10] it was above 100 µM.
Consider `CC(C)[C@H](C(=O)O[C@@H]1/C=C/C(=O)O[C@@H](C)CCC/C=C/[C@@H]2C[C@H](O)C[C@H]21)N(C)C`, for which the GI50 in [1] was 8.7 µM; in assay [2], 11.2 µM; in assay [3] it was 27.7 µM; in [4], 30.2 µM; in assay [5], 9.59 µM; in [6], 15.2 µM. Besides, the GI50 in assay [7] was 14.5 µM; in assay [8] it was 17 µM; in assay [9], 6.35 µM; in [10] it was 19.4 µM. Also, the concentration for total growth inhibition (TGI) in [1] was above 94.5 µM; in assay [2] it was 44.2 µM; in assay [3], 82.5 µM; in assay [4], above 100 µM; in assay [5], 26.9 µM; in [6], 71.1 µM. For the same compound, the TGI is 37.2 µM in assay [7], above 63.2 µM in assay [8], 21.8 µM in [9] and above 73.8 µM in assay [10].
Consider `CC1COCCN1CC#CCOC(=O)c1cc2ccccc2oc1=O` (configuration not stated), for which the GI50 in [1], in assay [2], in [3], in assay [4], in assay [5] and in [6] was above 100 µM each time. Also, the GI50 in assay [7], in assay [8], in assay [9] and in assay [10] was above 100 µM each time. The TGI in assay [1], in [2], in assay [3], in [4], in assay [5] and in assay [6] was above 100 µM each time. In addition, the TGI in [7], in [8], in [9] and in assay [10] was above 100 µM throughout.
For `CCN(CCO)CCCOc1ccc2c(Nc3cc(CC(=O)Nc4cccc(F)c4)[nH]n3)ncnc2c1`, the GI50 in assay [1] is 19.4 µM; in [2], 23.8 µM; in assay [3] it was 0.071 µM and 0.0456 µM; in assay [4], 15.4 µM; in assay [5], 10.6 µM; in assay [6] it was 12.4 µM. The GI50 in assay [7] is 9.63 µM; in assay [8], 16.9 µM; in assay [9], 7.23 µM; in assay [10], above 36.5 µM. For the same compound, the TGI was above 100 µM in [1]; above 100 µM in assay [2]; 21.3 µM and > 3.81 µM in assay [3]; above 60.6 µM in assay [4]; 32.2 µM and > 3.26 µM in assay [5]; 29.2 µM and > 2.56 µM in assay [6]. Moreover, the TGI in assay [7] is 34.6 µM and > 10 µM; in assay [8], 35.4 µM and > 2.16 µM; in assay [9] it was 29.8 µM and > 4.11 µM; in assay [10], above 100 µM.
`CN1CCN(c2ccc(Nc3ncc4cc5n(c4n3)C3(CCCCC3)CNC5=O)nc2)CC1`: the GI50 in assay [1] was 2.86 µM; in assay [2] it was 1.27 µM; in assay [3] it was 1.39 µM; in assay [5], 0.589 µM; in [6], 5.67 µM; in assay [7], 1.81 µM. Moreover, the results for the GI50 in assay [8], in assay [9] and in [10] were 4.49 µM, 0.166 µM and 0.397 µM, respectively. Moreover, the TGI in assay [1] amounted to 15.4 µM; in assay [2] it was 11.3 µM; in [3], 10.6 µM; in assay [5], 10.4 µM; in [6], 39.2 µM; in assay [7], 11 µM. The TGI in [8] worked out at 21.8 µM; in assay [9], 11.8 µM; in assay [10], 14.3 µM.
Regarding `O=C(/C=C/c1ccccc1)OCC1=C[C@@H](O)[C@@H]2C=CO[C@@H](OC3OC(CO)C(O)C(O)C3O)[C@H]12` (some centres not stated), the TGI in assay [1], in assay [2], in assay [4], in [5], in assay [6] and in [7] was above 100 µM each time. Besides, the TGI in assay [8], in [9] and in assay [10] was above 100 µM throughout.

The values above are taken from PubChem BioAssay (NCI).
